The test system of series [1] is human lymphocytes. The settings on record: phosphorylation by CK blocked, lymphocyte death does not occur; cited from earlier work.
Series [2] addresses A2A (adenosine receptor class 2a) (Homo sapiens, UniProt P29274). The settings on record: cited from earlier work.
For series [3], the system named is multiple sclerosis (MS) patients. The settings on record: 3.5 mg/kg and 5.25 mg/kg by oral tablets; cited from earlier work.
Series [4] concerns patient with IgM associated inflammatory peripheral neuropathy. The settings on record: intravenous, approximately 100 mg cumulative dose; cited from earlier work.
For series [5], the system named is patient with acetylcholine receptor antibody positive myasthenia gravis. The series can be described thus: Treatment of a person suffering from myasthenia gravis with cladribine (single patient; clinical rating scales and tolerability). In kind it is in vivo, human. Here is the method:
A patient with existing, acetylcholine receptor antibody positive myasthenia gravis (MG) diagnosed.
They received 20 mg cladribine, administered by subcutaneous injection of 2.5 mg cladribine in 2.5 ml in each of four limbs (total 10 mg), on each of two consecutive days. This total dose of 20 mg is markedly less than the total doses of 200-400 mg given in recent multiple sclerosis trials. Clinical assessment using two scales was performed one week before initiation of cladribine administration, and three months after first cladribine administration. The treatment with oral steroids and pyridostigmine remained stable over observation period.
The two scales used were:
• Myasthenia Gravis Composite Scale (Burns T et al. Neurology 74:1434-40 (2010) • Myasthenia Gravis Activities of Daily Living (Wolfe G et al. Neurology 52: 1487-89 (1999)

Setting [6] is: 3 months post vs pre-cladribine.

A2A (adenosine receptor class 2a), sequence (P29274 whole entry): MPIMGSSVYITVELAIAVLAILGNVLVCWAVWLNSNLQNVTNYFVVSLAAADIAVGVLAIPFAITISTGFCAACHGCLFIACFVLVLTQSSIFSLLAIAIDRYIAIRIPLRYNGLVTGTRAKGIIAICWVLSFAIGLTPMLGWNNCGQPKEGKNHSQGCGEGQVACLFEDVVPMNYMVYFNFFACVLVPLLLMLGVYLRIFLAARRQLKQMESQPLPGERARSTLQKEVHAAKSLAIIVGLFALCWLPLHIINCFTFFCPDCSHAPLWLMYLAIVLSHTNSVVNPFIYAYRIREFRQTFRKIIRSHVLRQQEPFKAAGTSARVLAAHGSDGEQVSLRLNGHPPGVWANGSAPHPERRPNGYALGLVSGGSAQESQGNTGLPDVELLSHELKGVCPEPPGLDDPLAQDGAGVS

As for `Nc1nc(Cl)nc2c1ncn2[C@H]1C[C@H](O)[C@@H](CO)O1` [cladribine, 2-chloro-2′-deoxyadenosine], the Induced cytokine production entry in series [1] was “decreased”. Also, the “Affinity at A2A receptors” value in series [2] is recorded as “high affinity”. Besides, in series [3], the “Clinical outcome in MS (relapses, disability, MRI disease activity)” value is “fewer relapses, less disability, and less disease activity”. In addition, the “Clinical outcome in IgM associated inflammatory peripheral neuropathy” value in series [4] is “symptomatic improvement and reduced levels of pathogenic antibodies”. The “MG Composite Scale score, 3 months post-cladribine” value in series [5] (20 mg total s.c. (10 mg on each of two consecutive days), 3 months after first administration, pre-cladribine score 31) was found to be 6. Further, the “MG Activities of Daily Living score, 3 months post-cladribine” value in series [5] (20 mg total s.c., 3 months after first administration, pre-cladribine score 19) stood at 8. In series [5] (20 mg total s.c., MG patient), the “Adverse events considered possible side effects of cladribine” value was “did not experience any adverse events” and the “Transient worsening of signs after treatment initiation” value is “did not produce a transient worsening of signs”. In addition, in series [5] (setting [6]), the “Improvement on the MG Activities of Daily Living scale” value was determined as 11 point and the “Improvement on the MG Composite Scale” value stood at 25 point. The “Durability of clinical improvement after the 3 month assessment” value in series [5] (MG patient, led to gradual withdrawal of baseline treatment) was “sustained over the following seven months”. For the same molecule, the “Period of beneficial effects on the disease without frequent retreatment” value in series [5] (after a short period of treatment) is reported as “over 10 months”.

With `Cn1cnc([N+](=O)[O-])c1Sc1ncnc2nc[nH]c12` [azathioprine], the “Tolerability of prior azathioprine treatment” value in series [5] (same MG patient, before cladribine, stopped after 1 week of treatment) is “severe intolerance due to nausea and vomiting”.

The values above are taken from patent US12171775B2, “Use of cladribine for treating autoimmune neuromuscular disease” (priority 2017, dated 2024).
